Measured values published in patent US10752675B2, “Compounds for treating the remyelination blockade in diseases associated with the expression of HERV-W envelope protein” (GENEURO S.A., priority 2012, dated 2020).
“Also recorded” adds a separate entry of the source. Counter-ions that a name gives are not always drawn.

Key:
[1] = test system: rat OPCs; assay: 3-nitrotyrosine (3-NT) positive rat OPCs after Env stimulation (immunostaining); type: cell-based; settings: for Env dependent formation of 3-NT positive OPCs after pre-incubation: 100 μM for 30 min at 37° C. prior to Env stimulation
Method: Rat oligodendrocyte Precursor Cells (OPCs) were purified as previously described^22. OPCs were either kept in proliferation medium (Sato medium supplemented with 10 ng/ml recombinant human basic fibroblast growth factor and 10 ng/ml recombinant human platelet-derived growth factor-AA; R&D Systems, Wiesbaden-Nordenstadt, Germany), whereas differentiation was initiated by Sato medium supplemented with 0.5% fetal calf serum. Human fetal oligodendrocyte precursor cells (hOPC) and respective media were purchased from 3H Biomedical, Uppsala, Sweden. Recombinant Env was produced and purified by PX-Therapeutics (Grenoble, France) according to QC specifications of GeNeuro (Geneva, Switzerland) that supplied the protein batches. Endotoxin levels were <5 EU/mL as measured by the limulus amebocyte lysate (LAL) test. Env stimulation was carried out using three different approaches using i) recombinant full length Env protein diluted in differentiation medium at 10 ng/ml, 100 ng/ml and 1000 ng/ml, ii) recombinant Env protein coated on cell culture dishes at a surface concentration of 17.53 ng/cm^2 and iii) by seeding OPCs on transfected U343 glioblastoma cells overexpressing Env, respectively. Control stimulation experiments were conducted using the recombinant Env buffer preparation (20 mM histidine, 5% (w/v) sucrose, 0.01% (w/v) polysorbate 20, pH 6.0) at equal dilutions. NO concentration measurements in OPC supernatants were performed using a colorimetric nitric oxide assay kit (Merck-Millipore/Calbiochem, Darmstadt, Germany) and the absorbance was determined at 540 nm using an Anthos plate reader 2001 (Anthos labtec instruments, Salzburg, Austria). OPC morphology assessment was carried out using an anti-04 antibody Merck-Millipore/Chemicon, Darmstadt, Germany) taking into account cell diameter and the degree of process branching. […]

[2] = test system: rat OPCs; assay: Myelin protein (CNPase, MBP) expression of Env stimulated rat OPCs (immunostaining); type: cell-based; settings: 100 μM in combination with surface bound recombinant Env for three days
Method: (§1) Rat oligodendrocyte Precursor Cells (OPCs) were purified as previously described^22. OPCs were either kept in proliferation medium (Sato medium supplemented with 10 ng/ml recombinant human basic fibroblast growth factor and 10 ng/ml recombinant human platelet-derived growth factor-AA; R&D Systems, Wiesbaden-Nordenstadt, Germany), whereas differentiation was initiated by Sato medium supplemented with 0.5% fetal calf serum. Human fetal oligodendrocyte precursor cells (hOPC) and respective media were purchased from 3H Biomedical, Uppsala, Sweden. Recombinant Env was produced and purified by PX-Therapeutics (Grenoble, France) according to QC specifications of GeNeuro (Geneva, Switzerland) that supplied the protein batches. Endotoxin levels were <5 EU/mL as measured by the limulus amebocyte lysate (LAL) test. […] NO concentration measurements in OPC supernatants were performed using a colorimetric nitric oxide assay kit (Merck-Millipore/Calbiochem, Darmstadt, Germany) and the absorbance was determined at 540 nm using an Anthos plate reader 2001 (Anthos labtec instruments, Salzburg, Austria). […]

[3] = test system: MSRV-Env induced EAE in C57BL/6 mice; assay: EAE clinical score, Example 3.A (EAE induced with MOG and MSRV-Env); type: in vivo; settings: treatment from day 12 to day 29: GNbAc1 200 μg once, L-NAME 600 μg IP and SMT 1 mg IP every 4 days, DMF 1 mg daily in drinking water
Description: Pathogen free female C57BL/6 nice (6-8 weeks old) were purchased from the Charles River laboratories and maintained at the animal facilities for one week before immunization. One day before immunization, all mice have been weighed, and then evaluated on the Rotarod Test. Rotarod:
(§2) Animals were weighed and clinically scored 5 days per week according to the following criteria: 0=no signs; 1=tail paralysis or hyper-reflex of hind limb(s) or unilateral hind limb weakness; 2=bilateral hind limb or forelimb weakness; 3=plus unilateral paralysis or major deficit; 4=complete hind limb or forelimb paralysis; 5=plus partial paralysis or major deficit of opposite limbs; 6=moribund or dead. These were adapted from standard criteria, in order to reflect the more rapid induction of brain and cervical cord lesions with this model.
(§3) All groups of 6 (six) mice have been first injected s.c. in the neck on day 0 then in the dorsal flanks on day 7 and 14; with 200 μg of MOG/mouse+60 μg of MSRV-Env+IFA.
(§4) For Groups G to H, the treatments with GNbAc1, L-NAME, SMT and DMF alone or together with GNbAc1 with the doses indicated below, have been initiated on day 12 post immunization when the progression of EAE clinical symptoms was already observed. GNbAc1 humanized antibody was administered once, but L-Name or SMT was administered every 4 days until termination of the study on day 29. Regarding Groups E and H, attributed for the treatment with DMF, we have previously determined the volume of daily water consumption by each mouse and it has been determined that (in our condition), each mouse consumed around 3.5 ml drinking water per day. Thus, on the basis of this measurement, a dose of 1 mg DMF+0.08% Methocel per mouse were added to 3.5 ml drinking water daily.
350 ng of pertussis toxin (PTX) per animal was injected (i.p.) in all groups on the same day following each immunogen injection, and replicated 2 days later, as usual in EAE protocols in order to facilitate the migration lymphocytes through the blood-brain barrier.

[4] = test system: MSRV-Env induced EAE in C57BL/6 mice; assay: Rotarod test, Example 3.A (MSRV-Env induced EAE); type: in vivo; settings: Example 3.A doses, end of study period
Method: 9 and 8 days before immunization. Transfer of mice, in their home cages, from the holding room to the experimental room. Mice are habituated to the experimental room for 15 min. During the training period, each mouse was placed on the rotarod at a constant speed (4 rpm) if one mouse was falling, she was back on rotarod, when mice were comfortable on the rotarod, mice were running during 120 sec. All mice were returned to their cage, the speed was increased to 13 rpm and mice were again put on the rotarod for 120 sec. All mice were returned to their cage, the speed was increased to 19 rpm and mice were again put on the rotarod for 120 sec. The experimental-room environment were kept constant between test sessions with respect to temperature, and light intensity.
1 day before each immunization, mice were transferred in their home cages, from the holding room to the experimental room. Mice were habituated to the experimental room for 15 min. Mice then received two trials at 10 increasing speed levels, ranging from 7 to 40 rpm. Individual delays before falling off the rotarod (for the two trials at each speed level) was recorded until 60 sec. Thus, training and performance on the Rotarod system were determined for each animal.
The ROTAROD test results are expressed as kinetics of the mean of individual scores for each group with SEM indicated by bars, for each test day and for each test speed within the discriminating range for neuromotor impairment in present conditions (16 to 29 rpm).
They are calculated for each individual mouse, for each test day and for each speed value, as the relative gain or loss of time on Rotarod (before falling), compared to the first test day at the same speed (D-7, before starting the disease induction in relevant groups). The value is calculated as “Time on Rotarod at dayX”−“Time at Day-7 for the same mouse at the same speed”. Figures illustrate the kinetics for the different groups on the whole study period, for representative discriminative speed values when validated to differentiate ill from healthy animals in our conditions (e.g., too high or too low speed values either made healthy ones fall immediately or ill ones capable to sustain a slow movement).
as §3, §4

[5] = test system: rat OPCs; assay: iNOS expression in cultured rat OPCs stimulated with recombinant Env (quantitative RT-PCR); type: cell-based; settings: 2 h pre-incubation (IRAK1/4 inhibitor I 3200 nM; TRIF inhibitory peptide 50 μM; anti-TLR4 antibody 15 μg/ml), then solid recombinant Env 8 h, GAPDH reference
Method: as §1, with “Recombinant Env was produced and purified by PX-Therapeutics (Grenoble, France) according to QC specifications of GeNeuro (Geneva, Switzerland) that supplied the protein batches.” left out
Transcription Polymerase Chain Reaction RNA purification from cultured cells was performed using the RNeasy procedure (Qiagen, Hilden, Germany). […] Quantitative determination of gene expression levels was performed on a 7900HT sequence detection system (Life Technologies/Applied Biosystems) using Power SybrGreen universal master mix (Life Technologies/Applied Biosystems). […]

[6] = test system: MSRV-Env induced EAE in C57BL/6 mice; assay: EAE clinical score, Example 3.C (GNbAC1 and Sodium Fumarate); type: in vivo; settings: from day 12: GNbAC1 500 μg IP; Sodium Fumarate 10 mg daily in 3.5 ml drinking water; versus isotype control antibody
Description: as §2

[7] = test system: rat OPCs; assay: NO concentration in OPC supernatants (colorimetric nitric oxide assay); type: cell-based; settings: Env stimulated OPCs; data not shown
Method: as §1

COC(=O)[C@H](N)CCCNC(=N)N[N+](=O)[O-] [D-NAME, D-N^G-nitroarginine methyl ester]
Env dependent formation of 3-NT positive OPCs after pre-incubation [1]: not affected; also recorded: could not abolish the Env dependent 3-NT induction
MBP expression in Env stimulated OPCs (rescue of differentiation block) [2]: not and not able to rescue myelin expression

COC(=O)/C=C/C(=O)OC [DMF, dimethyl fumarate]
EAE clinical score kinetics and recovery [3]: equivalent recovery at the end of the study

CSC(=N)N [SMT, S-methyl-isothiourea]
EAE clinical score kinetics and recovery [3]: irregular recovery; also recorded: lower recovery scores and kinetics than group B
Time on Rotarod at 23 rpm relative to Day -7 [4]: improved kinetics and outcome

O=C(Nc1nc2ccccc2n1CCN1CCOCC1)c1cccc([N+](=O)[O-])c1 [IRAK-1/4 inhibitor I, 1-(2-(4-Morpholinyl)ethyl)-2-(3-nitrobenzoylamino)benzimidazole]
iNOS expression in presence of Env after pre-incubation with inhibitor [5]: significantly decreased iNOS expression levels
iNOS expression in presence of Env after pre-incubation with inhibitor ([5]; listed as IRAK1/4 inhibitor I): Reduction of iNOS expression

CC(=O)NC(C(=O)O)C(C)(C)SN=O (racemic) [SNAP, S-Nitroso-N-acetyl-DL-penicillamine]
3-NT positive OPCs, NO donor positive control ([1]; SNAP 100 ng/ml): nitrotyrosinylation of almost all OPCs

O=C([O-])/C=C/C(=O)[O-].[Na+].[Na+] [Sodium Fumarate, reference compound]
EAE clinical score kinetics and endpoint [6]: did not reveal any significant clinical improvement; also recorded: bad outcome at the end of the study; also recorded: no effect

COC(=O)[C@@H](N)CCCNC(=N)N[N+](=O)[O-] [L-NAME, L-N^G-nitroarginine methyl ester]
Env dependent formation of 3-NT positive OPCs after pre-incubation [1]: significantly decreased; also recorded: reduced to control levels
NO production after pre-incubation with L-NAME [7]: significantly decreased
EAE clinical score kinetics and recovery [3]: irregular recovery
EAE clinical score kinetics and recovery ([3]; listed as L-Name): lower recovery scores and kinetics than group B
Time on Rotarod at 26 rpm relative to Day -7 [4]: improved kinetics and outcome
Time on Rotarod at 29 rpm relative to Day -7 [4]: improved kinetics and outcome
MBP expression in Env stimulated OPCs (rescue of differentiation block) [2]: rescue MBP expression; also recorded: abolishment of the Env-mediated OPC differentiation block
